Values of other authors in patent publication US6462233B1, “Process for the preparation of sorbic acid” (Daicel Chemical Industries, Ltd., priority 1998, dated 2002).

Conditions: hot water around 100° C.

solubility of sorbic acid: at most 3%
SMILES: C/C=C/C=C/C(=O)O [sorbic acid]
